Assay results from patent US9187784B2, “EphA4 is a disease modifier in motor neuron disease” (VIB VZW, priority 2011, dated 2015).
Marks after values point to notes of the source that are not given here.

What was measured:
TDP43A315T embryos = experiment: mutant TDP-43-induced motor axonopathy in zebrafish embryos; assay type: in vivo; conditions: zebrafish embryos
Description: FIG. 14: Inhibiting EphA4 signaling rescues motor axonopathies induced by overexpression of mutant TDP-43 and knockdown of Smn. Y-axes show motor axon length of zebrafish embryos (30 hpf) expressing TDP^WT (black bar) or TDP^A315T (white bar) (Panels A, B) or with unaltered (black bar) or reduced expression levels of Smn (white bar) (Panels C, D). Smn knockdown was established by injection of 3 ng (Panel C) or 6 ng (Panel D) atg-smn morpholino. Ctr-smn morpholino was injected as control. RTK1 signaling was inhibited by injection of 3 ng atg-RTK1 morpholino (shaded bars) (Panels A, C) or by treatment with C1 (500 μM, shaded bars) (Panels B, D). Injection of ctr-RTK1 morpholino and application of a 1/250 dilution of DMSO were used as control. ANOVA and Bonferroni's multiple comparison tests were used for statistical analysis: TDP^A315T/atg-RTK1 (n=24) vs. TDP^A315T/ctr-RTK1 (n=34, p=7.86×10^−5, Panel A), TDP^A315T/C1 (n=21) vs. TDP^A315T/DMSO (n=21, p=0.045, Panel B), atg-smn/atg-RTK1 (n=35) vs. atg-smn/ctr-RTK1 (n=35, p=4.93×10^−8, Panel C), atg-smn/C1 (n=91) vs. atg-smn/DMSO (n=105, p=1.27×10^−6, Panel D). Error bars are s.e.m.
Mann-Whitney test was used to determine significance between TDPA315T/ctr-RTK1 (4.5 ng) vs. TDPA315T/atg-RTK1 (4.5 ng, * p=0.001) and between TDPA315T/control vs. TDPA315T/C1 (° p=0.029). Control=1/250 DMSO and C1=500 μM.
(§1) A morpholino database of translation-blocking morpholinos (atg-mo) was used to perform a morpholino-based knockdown screening in a zebrafish model for ALS.^13 The standard control morpholino (5′-[…]-′3) (SEQ ID NO:4), provided by Gene tools, was used as control. Three nanograms of morpholino were co-injected with […] of SOD1 mRNA and the effect of gene knockdown on the mutant SOD1-induced axonopathy analyzed. Each morpholino was tested in two separate experiments. Only morphologically normal embryos were included for further analysis. Overexpression of SOD1 or TDP-43, applied to validate the protective morpholino, was established by injection of 1.76 ng SOD1 mRNA or 1.43 ng TDP-43 mRNA, respectively. Antisense morpholinos to knockdown zebrafish RTK1, RTK2, Smn and their five base pair-mismatch control morpholinos were developed by Gene tools: atg-RTK1 (5′-[…]-′3) (SEQ ID NO:5), atg-RTK2 (5′-[…]-[…]-′3) (SEQ ID NO:6), splice-RTK2 (5′-[…]-[…]-′3) (SEQ ID NO:7) and atg-smn (5′-[…]-3′) (SEQ ID NO:8). Compound 1 (2,5-dimethylpyrrolyl benzoic acid, Matrix Scientific) dissolved in DMSO was added to the water of 6-hpf-old zebrafish embryos.

[1] = tested on: mutant SOD1-overexpressing fish; experiment: mutant SOD1-induced motor axonopathy in zebrafish embryos (percentage affected embryos, motor axon length); assay type: in vivo; conditions: for % affected embryos: Table 3, SOD1A4V embryos
Description: FIG. 1: EphA4 knockdown rescues mutant SOD1-induced motor axonopathy. […] Abnormal branching is indicated with arrowhead. Y-axes show motor axon length of zebrafish embryos expressing wild-type SOD1 (black bar, Panels D-G) or mutant SOD1 (white bar, Panels D-G). Knockdown of RTK2 in SOD1A4V- (Panel D), SOD1G93A- (Panel E) and SOD1G37R- (Panel F) expressing fish was established by co-injection of increasing amounts of atg-RTK2 morpholino (shaded bars). RTK1 expression was inhibited in SOD1A4V-expressing fish by co-injection of atg-RTK1 morpholino (shaded bars, Panel G). Ctr-RTK2 and ctr-RTK1 were used as control. ANOVA and Bonferroni's multiple comparison tests were used for statistical analysis. Comparing axonal length in SOD1A4V fish injected with ctr-RTK2 (n=39) vs. different doses atg-RTK2: 3 ng (n=43, p=0.0059), 4.5 ng (n=37, p=0.0016, Panel D), SOD1G93A: ctr-RTK2 (n=60) vs. atg-RTK2: 1.5 ng (n=55, p=0.015), 3 ng (n=51, p=2.82×10-9), 4.5 ng (n=46, p=2.22×10-15, Panel E), SOD1G37R: ctr-RTK2 (n=37) vs. atg-RTK2: 3 ng (n=25, p=0.027), 4.5 ng (n=36, p=0.0018, Panel F) and SOD1A4V: ctr-RTK1 (n=49) vs. atg-RTK1: 1.5 ng (n=51, p=2.51×10-7), 3 ng (n=64, p=7.99×10-10), 4.5 ng (n=54, p<1×10-20, Panel G). Western blot of SOD1WT or SOD1A4V (1.76 ng) expressing zebrafish embryos (30 hpf), co-injected with either ctr-RTK1 or atg-RTK1 (4.5 ng). Sixty embryos were used per group with actin as the loading control (H). Immunostaining of rtk1 (green) in rhombomeres 3 and 5 and of ephrin-b2 (magenta) in rhombomere 4 in zebrafish embryos injected with either ctr-RTK1 or atg-RTK1 (4.5 ng). RTK1-depleted embryos show disorganized rhombomere boundaries (arrowhead, I, Scale bar 50 μm). Error bars are s.e.m.
FIG. 2: RTK2 knockdown protects motor axons against SOD1^A4V-induced injury. Effect of RTK2 knockdown, established by injection of splice-rtk2 morpholino, on the motor axon length of SOD1^A4V-expressing zebrafish embryos (30 hpf). SOD1^WT-expressing fish and a non-functional five-base pair-mismatch control morpholino (ctr-RTK2) were used as control (Panel A). ANOVA and Bonferroni's multiple comparison tests were used for statistical analysis: SOD1^A4V/ctr-RTK2 (n=56) vs. SOD1^A4V/spl-RTK2 (n=60, 1.79×10^−4). Spl-RTK2 was designed against the exon 2 splice site of the zebrafish RTK2 pre-mRNA and alternatively skipped out exon 2. RT-PCR on non-transgenic fish (lane 1), ctr-RTK2-injected fish (lane 2) and spl-RTK2-injected fish (lane 3) at 30 hpf. Functional RTK2 mRNA, containing exon 2, is indicated by the 818-bp product (upper band) while non-functional RTK2 mRNA, lacking exon 2 is indicated by the 156-bp product (lower band), 60 embryos each group (Panel B). Error bars are s.e.m.
(§2) FIG. 12: Pharmacological inhibition of EphA4 receptor signaling protects against mutant SOD1 pathology in vivo. Effect of treatment with Compound 1 (C1, 500 μM) on the motor axon length of zebrafish embryos (30 hpf). DMSO (1/250 dilution) was used as control (Panel A). ANOVA and Bonferroni's multiple comparison tests were used for statistical analysis: SOD1^A4V/C1 (n=68) vs. SOD1^A4V/DMSO (n=76, p=3.54×10^−5). Effect of KYL-peptide (3 mM) treatment of 60-day-old SOD1^G93A rats on disease onset (Panel B) and survival (Panel C). Artificial CSF (ACSF) was used as control. Average disease onset: 133 days (treated, n=21) versus 125 days (control, n=17, T-test p=0.044). Average survival: 148 days (treated, n=21) versus 139 days (controls, n=17, T-test p=0.041). Error bars are s.e.m.
Effect of RTK2 knockdown (established by injection of atg-RTK2 morpholino) on the percentage of affected wild-type SOD1 or mutant SOD1 (A4V, G93A, G37R) zebrafish embryos (30 hpf). Ctr-RTK2 morpholino was used as control. An embryo was considered as affected when it had more than 10% abnormally branched motor axons. Significance of mtSOD1/ctr-RTK2 (4.5 ng) vs. mtSOD1/atg-RTK2 (4.5 ng) was determined by Mann-Whitney test, * p=0.0075, ° p=0.039 and # p=0.0052. […]

zebrafish embryos = experiment: morpholino-based smn knockdown: abnormally branched and truncated motor axons in zebrafish embryos; assay type: in vivo; conditions: for truncation affected (%): affected = more than 5% truncated motor axons; for branching affected (%): affected = more than 10% abnormally branched motor axons
Description: FIG. 15: Smn knockdown reduces the motor axon length in zebrafish embryos. […] The non-functional five-base pair-mismatch control morpholino (ctr-smn) was used as control. ANOVA and Bonferroni's multiple comparison tests were used for statistical analysis: ctr-smn (6 ng, n=42) vs. 3 ng atg-smn (n=28, p=8.99×10^−3), 4.5 ng atg-smn (n=30, 3.37×10^−7), 6 ng atg-smn (n=41, p<1×10-20). Error bars are s.e.m.
Effect of smn knockdown, induced by injection of increasing amounts of atg-smn morpholino, on the percentage affected embryos. An embryo was considered as affected when it had more than 10% abnormally branched or more than 5% truncated motor axons. Significance of ctr-smn (6 ng) vs. atg-smn (6 ng) was determined by Mann-Whitney test, *p=3×10-4, ° p=1.3×10-4.
as §1

EphA4 = EphA4 (Homo sapiens, UniProt P54764); conditions: WO2004/028551; cited from earlier work
SOD1G93A rat = experiment: KYL peptide intracerebroventricular treatment of SOD1G93A rats (disease onset, survival); assay type: in vivo
Description: as §2
EphA4−/− mice were mated with SOD1G93A mice for at least six generations. All experiments were littermate and gender controlled. […] The EphA4 blocking peptide ([…] (SEQ ID NO:1)-95% purity; Eurogentec) was a 3 mM solution in artificial cerebrospinal fluid and infused into the left lateral ventricle of 60-day-old female rats, using mini-osmotic pumps (28 days, 0.25 μl/h, Model 2004, Alzet) as previously described.^46 Disease onset, progression and survival of SOD1G93A rats were analyzed by weight and rotarod performance (five times for three minutes at 15 rpm) three times a week. […]

EphA4, sequence (P54764 20-986, species assumed): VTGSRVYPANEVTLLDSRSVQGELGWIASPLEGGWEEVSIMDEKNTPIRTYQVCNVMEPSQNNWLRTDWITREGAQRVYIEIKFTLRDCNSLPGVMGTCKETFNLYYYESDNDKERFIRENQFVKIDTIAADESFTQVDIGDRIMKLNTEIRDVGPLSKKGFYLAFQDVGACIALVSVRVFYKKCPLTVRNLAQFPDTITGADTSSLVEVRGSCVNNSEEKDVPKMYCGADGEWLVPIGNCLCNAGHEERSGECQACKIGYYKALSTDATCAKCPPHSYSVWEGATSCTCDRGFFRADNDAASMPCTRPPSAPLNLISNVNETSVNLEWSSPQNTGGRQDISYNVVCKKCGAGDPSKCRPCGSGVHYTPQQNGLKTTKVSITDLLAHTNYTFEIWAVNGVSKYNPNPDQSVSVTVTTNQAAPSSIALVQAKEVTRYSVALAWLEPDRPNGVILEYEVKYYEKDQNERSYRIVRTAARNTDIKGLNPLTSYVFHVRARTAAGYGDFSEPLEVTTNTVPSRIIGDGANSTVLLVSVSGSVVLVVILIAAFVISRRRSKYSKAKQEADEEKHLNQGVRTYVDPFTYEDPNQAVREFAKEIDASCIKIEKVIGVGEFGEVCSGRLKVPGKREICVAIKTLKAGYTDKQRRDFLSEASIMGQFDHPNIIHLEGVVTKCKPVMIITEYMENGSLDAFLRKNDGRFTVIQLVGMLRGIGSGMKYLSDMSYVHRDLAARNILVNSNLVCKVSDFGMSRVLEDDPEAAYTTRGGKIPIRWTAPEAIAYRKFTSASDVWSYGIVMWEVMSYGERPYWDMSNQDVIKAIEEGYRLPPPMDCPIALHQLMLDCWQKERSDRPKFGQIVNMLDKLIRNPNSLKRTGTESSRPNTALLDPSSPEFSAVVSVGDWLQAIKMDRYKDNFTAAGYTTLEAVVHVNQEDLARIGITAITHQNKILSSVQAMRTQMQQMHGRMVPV

In the case of “2,5-dimethylpyrrolyl benzoic acid [Compound C1]”, the “effect on outgrowth deficit and aberrant branching induced by mutant TDP-43” value (TDP43A315T embryos) is reported as “rescued the outgrowth deficit and aberrant branching induced by mutant TDP-43”.
For “5′-CCTCCCACTGA-AAATGGACAGAGGA-′3 (antisense CCTCCCACTGAAAATGGACAGAGGA; all phosphorodiamidate morpholino (PMO)) [spl-RTK2]”, the “effect on mutant SOD1-induced axonopathy” value ([1]; SOD1A4V zebrafish embryos, 30 hpf) was “replicating the protective effect of RTK2 knockdown”, the “% affected embryos” value ([1]; morpholino 0.4 ng) was 40 (30) % and the “% affected embryos” value ([1]; morpholino 0.8 ng) was 19 (31) %. For the same substance, the “% affected embryos” value ([1]; morpholino 1.5 ng) was 13* (31) %.
For “5′-CGACATCTTCTGCACCATTGGC-3′ (all phosphorodiamidate morpholino (PMO)) [atg-smn]”, the “truncation affected (%)” value (zebrafish embryos; morpholino 3 ng) was 7%, the “branching affected (%)” value (zebrafish embryos; morpholino 3 ng) was 39% and the “truncation affected (%)” value (zebrafish embryos; morpholino 4.5 ng) was 11%. The “branching affected (%)” value (zebrafish embryos; morpholino 4.5 ng) was 46%, the “truncation affected (%)” value (zebrafish embryos; morpholino 6 ng) was 42° % and the “branching affected (%)” value (zebrafish embryos; morpholino 6 ng) was 71* %.
In the case of “KYLPYWPVLSSL (EphA4 inhibitory peptide) [KYL peptide]”, the “binding to EphA4” value (EphA4) is given as “preferentially bind to EphA4”, the Average survival (SOD1G93A rat; KYL-peptide 3 mM intracerebroventricular from day 60, controls 139 days) is given as 148 days and the Average disease onset (SOD1G93A rat; KYL-peptide 3 mM intracerebroventricular from day 60, onset by rotarod, control 125 days) is given as 133 days.
For “VTMEAINLAFPG (EphA4 inhibitory peptide) [VTM peptide]”, the “binding to EphA4” value (EphA4) is given as “preferentially bind to EphA4”.
